{"source": "patent US20210395210A1", "about": "“INHIBITION OF BACTERIAL CHAPERONIN SYSTEMS” (THE TRUSTEES OF INDIANA UNIVERSITY, priority 2018, published 2021)", "target": "T1, native MDH (Sus scrofa, UniProt P00346)", "T1 construct": "soluble pig heart MDH from Roche, product #10127248001; purchased Roche 10127248001; host or cells: pig heart", "T1 sequence (P00346 25-338)": "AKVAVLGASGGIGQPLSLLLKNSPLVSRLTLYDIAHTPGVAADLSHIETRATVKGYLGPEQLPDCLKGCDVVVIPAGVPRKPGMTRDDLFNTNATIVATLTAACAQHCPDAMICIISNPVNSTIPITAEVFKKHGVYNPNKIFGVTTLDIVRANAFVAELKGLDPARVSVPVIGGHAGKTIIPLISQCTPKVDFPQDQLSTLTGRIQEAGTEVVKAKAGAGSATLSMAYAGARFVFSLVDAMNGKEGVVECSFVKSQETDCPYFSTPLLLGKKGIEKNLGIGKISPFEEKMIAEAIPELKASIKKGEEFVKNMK", "experiment": "Counter-screen for inhibition of native MDH enzymatic activity", "assay_type": "biochemical, pig", "experimental": "Reagent Preparations & Assay Protocol: This assay was performed as described above for the GroEL/ES-dMDH refolding assay; however, the assay protocol differed in the sequence of compound addition to the assay plates. The refolding reactions were allowed to proceed for 45 min at 37° C. in the absence of test compounds (complete refolding of MDH occurs), then quenched with the EDTA stock. Compounds were then pin-transferred into the plates after the EDTA quenching step; thus, compounds effects are only possible by inhibiting the fully-refolded MDH reporter substrate. […] A340 nm measurements were recorded at 0.5 minutes (start point) and at successive time points until the amount of NADH consumed reached ˜90% (end point, generally between 20-35 minutes). Compounds were tested in 8-point, 3-fold dilution series (62.5 μM to 29 nM during the reporter reaction) in clear, flat-bottom 384-well microtiter plates. DMSO was used as a negative control, and previously discovered native MDH inhibitors were used as positive controls. […] Results presented represent the averages of IC50 values obtained from at least quadriplicate (duplicate of duplicate) replicates.", "data": [{"smiles": "O=C(Nc1ccccc1)c1ccccc1", "note": "[Compound 28, N-Phenylbenzamide]", "values": [{"measurement": "IC50", "setting": "Biochemical Assay IC50 Native MDH Reporter", "value": "> 63", "unit": "µM"}, {"measurement": "IC50", "setting": "log(IC50) Native MDH Reporter, log of IC50 (μM scale), with standard deviation", "value": "> 63.1", "unit": "µM"}]}]}
